Target: full-length human PRMT6 (Flag- and His-tagged) (Homo sapiens, UniProt Q96LA8)
Assay: PRMT6 Biochemical Assay (3H-SAM Flashplate, peptide substrate)
Settings: single experiment or average of multiple experiments; read-out: Biochemical IC50 PRMT6
Procedure, shortened: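 Flag/His-tagged full-length human PRMT6 (1 nM) preincubated with compound 30 min at room temperature in Bicine pH 7.6 buffer, then reaction started with 3H-SAM 200 nM plus unlabeled SAM 250 nM and biotinylated H4 36-50 peptide (K44me1) 75 nM; 2% DMSO. Quenched with 400 uM cold SAM; labeled peptide captured on streptavidin Flashplate, counted; % inhibition vs DMSO and 1 mM SAH controls fit by 3- or 4-parameter curve.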

Sequence of full-length human PRMT6 (Flag- and His-tagged) (Q96LA8 with tags, fused parts or gaps): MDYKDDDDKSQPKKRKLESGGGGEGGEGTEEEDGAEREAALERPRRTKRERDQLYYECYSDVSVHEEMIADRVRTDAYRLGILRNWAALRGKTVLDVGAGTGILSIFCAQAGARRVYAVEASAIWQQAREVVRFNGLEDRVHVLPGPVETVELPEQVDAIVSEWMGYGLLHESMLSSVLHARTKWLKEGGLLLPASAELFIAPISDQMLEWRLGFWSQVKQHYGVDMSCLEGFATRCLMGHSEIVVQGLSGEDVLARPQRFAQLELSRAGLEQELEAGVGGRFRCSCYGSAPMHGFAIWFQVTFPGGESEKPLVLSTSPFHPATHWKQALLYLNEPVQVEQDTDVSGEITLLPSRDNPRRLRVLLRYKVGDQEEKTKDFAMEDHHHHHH

IC50: 20 nM
SMILES: CNCCN(C)Cc1c[nH]nc1C#Cc1ccccc1 [Compound 3]

Reference: US11512053B2, “Arginine methyltransferase inhibitors and uses thereof” (priority 2013, dated 2022)
